Patent US8440637B2, “Combination treatment for the treatment of hepatitis C virus infection” (priority 2007, dated 2013)
Strand notation (5' to 3'): a small letter for the sugar, then the base; units joined by * are phosphorothioate-linked, units joined directly phosphodiester-linked; [ ] holds rarer units or linkages, { } end groups; capitals alone tell only the bases. l = locked nucleic acid (LNA); [5mC] = 5-methylcytosine; d = 2'-deoxy (DNA)

Columns and labels:
[1] = tested on: miR-122a; experiment: miR-122a levels in mouse liver by microRNA specific qPCR; format: in vivo; settings: hypercholesterolemic and normal mice; 5 mg/kg i.p. twice weekly for 5½ weeks
Description: Total RNA was extracted from liver samples as described above and analysed for miR-122a levels by microRNA specific QPCR.
In vivo study: Ten groups of animals (female C57/BL6; 3 mice per group) were treated in the following manner. Group 1 animals were injected with 0.2 ml saline by i.p. on day 0, day 2 and day 4. Groups 2-10 were dosed by i.p. with three different conc. (25 mg/kg, 5 mg/kg and 1 mg/kg) of either LNA antimiR-122a/SEQ ID NO: 61 (group 2-4), LNA antimir-122a/SEQ ID NO: 66 (group 5-7) or LNA antimir-122a/SEQ ID NO: 63 (group 8-10); the LNA antimir-122a sequences are given in the Table 1. All three LNA antimiR-122a oligonucleotides target the liver-specific miR-122a. The doses were calculated from the Day 0 body weights of each animal.
The animals were sacrificed 48 hours after last dose (Day 6), retro-orbital blood was collected in tubes containing EDTA and the plasma fraction harvested and stored frozen −80° C. for cholesterol analysis. At sacrifice livers were dissected and one portion was cut into 5 mm cubes and immersed in 5 volumes of ice-cold RNAlater. A second portion was snap frozen in liquid nitrogen and stored for cryo-sectioning.
Total RNA was extracted from liver samples using Trizol reagent according to the manufacturer's recommendations (Invitrogen, USA) and analysed for miR-122a levels by microRNA-specific QPCR according to the manufacturer's recommendations (Ambion, USA). […]
NMRI female mice were treated with indicated doses of LNA-antimiR (SEQ ID NO: 61) along with a mismatch control (m, SEQ ID NO: 65), saline and antagomir (SPC3595) for three consecutive days and sacrificed 24 hours after last dose (as in example 11 “old design”, n=5). miR-122 levels were analyzed by qPCR and normalized to the saline treated group.
(§1) C57BL/6J female mice were fed on high fat diet for 13 weeks before the initiation of the SEQ ID NO: 63 treatment. […] Both hypercholesterolemic and normal mice were treated i.p. twice weekly with 5 mg/kg SEQ ID NO: 63 and the corresponding mismatch control for a study period of 5½ weeks. Blood samples were collected weekly and total plasma cholesterol was measured during the entire course of the study. Upon sacrificing the mice, liver and blood samples were prepared for total RNA extraction, miRNA and mRNA quantification, assessment of the serum transaminase levels, and liver histology.
The miR-122 and let-7a microRNA levels were quantified with TaqMan microRNA Assay (Applied Biosystems) following the manufacturer's instructions. The RT reaction was diluted ten times in water and subsequently used for real time PCR amplification according to the manufacturer's instructions. A two-fold cDNA dilution series from liver total RNA of a saline-treated animal or mock transfected cells cDNA reaction (using 2.5 times more total RNA than in samples) served as standard to ensure a linear range (Ct versus relative copy number) of the amplification. Applied Biosystems 7500 or 7900 real-time PCR instrument was used for amplification.

[2] = tested on: miR-122; experiment: Total plasma cholesterol in hypercholesterolemic and normal mice, long-term treatment; format: in vivo, mouse; settings: hypercholesterolemic and normal mice; 5 mg/kg i.p. twice weekly
Description: as §1
C57BL/6J female mice (Taconic M&B Laboratory Animals, Ejby, Denmark) were used. All substances were formulated in physiological saline (0.9% NaCl) to final concentration allowing the mice to receive an intraperitoneal injection volume of 10 ml/kg.
In the diet induced obesity study, the mice received a high fat (60EN %) diet (D12492, Research Diets) for 13 weeks to increase their blood cholesterol level before the dosing started. The dose regimen was stretched out to 5½ weeks of 5 mg/kg LNA-antimiR™ twice weekly. Blood plasma was collected once a week during the entire dosing period. After completion of the experiment the mice were sacrificed and RNA extracted from the livers for further analysis. Serum was also collected for analysis of liver enzymes.
Immediately before sacrifice retro-orbital sinus blood was collected in EDTA-coated tubes followed by isolation of the plasma fraction. Total plasma cholesterol was analysed using ABX Pentra Cholesterol CP (Horiba Group, Horiba ABX Diagnostics) according to the manufacturer's instructions.

[3] = tested on: miR-122a target genes (Bckdk, aldolase A, Nrdg3, CD320, Vldlr); experiment: miR-122a target mRNA levels in mouse liver by qPCR; format: in vivo; settings: 5 mg/kg i.p. twice weekly for 5½ weeks
[4] = tested on: miR-122a; experiment: Melting temperature (Tm) of LNA anti-miR/miR-122a RNA duplex; format: physicochemical, human; settings: Table 2; towards synthetic miR-122a RNA oligonucleotide with phosphorothioate linkages; PS backbone
Description: The melting temperatures were assessed towards the mature miR-122a sequence, using a synthetic miR-122a RNA oligonucleotide with phosphorothioate linkaged.
The LNA anti-miR/miR-122a oligo duplex was diluted to 3 μM in 500 μl RNase free H2O, which was then mixed with 500 μl 2× dimerization buffer (final oligo/duplex conc. 1.5 μM, 2× Tm buffer: 200 mM NaCl, 0.2 mM EDTA, 20 mM NaP, pH 7.0, DEPC treated to remove RNases). The mix was first heated to 95 degrees for 3 minutes, then allowed to cool at room temperature (RT) for 30 minutes.
Following RT incubation Tm was measured on Lambda 40 UV/VIS Spectrophotometer with peltier temperature progammer PTP6 using PE Templab software (Perkin Elmer). The temperature was ramped up from 20° C. to 95° C. and then down again to 20° C., continuously recording absorption at 260 nm. First derivative and local maximums of both the melting and annealing was used to assess melting/annealing point (Tm), both should give similar/same Tm values. For the first derivative 91 points was used to calculate the slope.

[5] = tested on: miR-122a; experiment: miR-122a level in transfected Huh-7 cells by miR-122a specific qRT-PCR; format: cell-based, human; settings: transfected at 1 and 100 nM, 24 hours after transfection
Description: The miR-122a expressing cell line Huh-7 was transfected with LNA anti-miR5 at 1 and 100 nM concentrations according to optimized lipofectamine 2000 (LF2000, Invitrogen) protocol (as follows).
Huh-7 cells were cultivated in Eagles MEM with 10% FBS, 2 mM Glutamax I, 1× non-essential amino acids, Gentamicin 25 μg/ml. The cells were seeded in 6-well plates (300000 cells per well), in a total vol. of 2.5 ml the day before transfection. At the day of transfection a solution containing LF2000 diluted in Optimem (Invitrogen) was prepared (1.2 ml optimem+3.75 μl LF2000 per well, final 2.5 μg LF2000/ml, final tot vol 1.5 ml).
LNA Oligonucleotides (LNA anti-miRs) were also diluted in optimem. 285 μl optimem+15 μl LNA oligonucleotide (10 μM oligonucleotide stock for final concentration 100 nM and 0.1 μM for final concentration 1 nM) Cells were washed once in optimem then the 1.2 ml optimem/LF2000 mix were added to each well. Cells were incubated 7 min at room temperature in the LF2000 mix where after the 300 μl oligonucleotide optimem solution was added. […]
miR-122a levels in the RNA samples were assessed on an ABI 7500 Fast real-time PCR instrument (Applied Biosystems, USA) using a miR-122a specific qRT-PCR kit, mirVana (Ambion, USA) and miR-122a primers (Ambion, USA). […]

## mismatch control: the corresponding mismatch control to SEQ ID NO: 63 in Example 31; probably SEQ ID NO: 64 (antisense l[5mC]*dC*lA*dT*dT*l[5mC]*lT*dG*dA*l[5mC]*dC*l[5mC]*dT*lA*l[5mC]) [reference compound]
[1]
  miR-122 levels in liver after long-term treatment (in words): had an effect on miR-122 levels
[2]
  effect on plasma cholesterol levels (in words): did not affect the plasma cholesterol levels
[3]
  de-repression of direct miR-122 target genes (AldoA and Bckdk) after long-term treatment (in words): did not result in any functional de-repression

## 5′-CcAttCTgaCcCtAC-3′ (antisense l[5mC]*dC*lA*dT*dT*l[5mC]*lT*dG*dA*l[5mC]*dC*l[5mC]*dT*lA*l[5mC]) [SEQ ID NO: 64, reference compound]
[4]
  Tm (° C.): 32 °C
[5]
  inhibition of miR-122a (in words): not found to inhibit miR-122a
